According to paper PMC4861708 (Frontiers in Cell and Developmental Biology, 2016):
≈ marks a conversion by molar mass, not a printed value. Where a SMILES comes first, the peptide text is derived from it. [ ]: non-standard residue; d: D form. The star is where a group is joined. Orn(α-tetramethylguanidino) = CN(C)C(=N[C@@H](CCCN)C(=O)*)N(C)C; Orn = NCCC[C@H](N)C(=O)O

Key:
[1] = tested on: E. coli DSM 1103 (ATCC 25922); type: cell-based, Escherichia coli; conditions: DSM 1103, 24 h
Description: MICs of P. aeruginosa strains DSM 1117 (ATCC 27853), DSM 3227 (ATCC 19429), and DSM 9644 were determined in a microdilution broth assay using 50 or 100% MHB (11.5 and 23 g/L MHB, respectively) whereas MICs of E. coli DSM 1103 (ATCC 25922) and K. pneumoniae DSM 681 (ATCC 10031) were determined in TSB (30 g/L TSB). Peptides (1 g/L in water) were serially two-fold diluted in a 96-well microtiter plate (PS, sterile, flat bottom) in 50 μL of the corresponding medium to final concentrations of 512–4 μg/mL. Bacteria were grown in nutrient broth overnight and diluted to a cell concentration of 1.5 × 10^7 cells/mL in the corresponding medium. Cell densities were determined by using the McFarland standard as reference. An aliquot (50 μL) of the cell culture was added to each well and incubated (37°C, 24 h). The OD595 was determined in a SpectraMax 340PC (Molecular Devices, Sunnyvale, USA). Additionally, MIC values were also determined for high bacteria densities (5 × 10^8 cells/mL) corresponding to the conditions used for TEM, as described above.

[2] = in vitro; type: cell-based, human; conditions: human
Description: (§1) Human embryonic kidney (HEK293) and HeLa cells were cultured in Dulbecco's modified Eagle's/Ham's F-12 medium [DMEM/F-12 (1:1)] supplemented with FBS (10% v/v), penicillin, and streptomycin (1000 units each). Primary rat cardiomyocytes (Innoprot, Elexalde Derio, Spain) were grown in medium supplemented with FBS (20% v/v), horse serum (5% v/v), L-glutamine (2 mmol/L), sodium pyruvate (2 mmol/L), MEM non-essential amino acids (Gibco, 0.1 mmol/L), penicillin, and streptomycin (1000 units each). Surfaces for cardiomyocyte growth were coated with attachment factor first. Cells (20,000/well) were seeded into a 96-well plate (PS, sterile, flat bottom), incubated for 24 h (37°C, 5% CO2), and washed twice with PBS (100 μl/well) prior to adding colorless medium (88 μL) and peptide solution (12 μL; 5, 2.5, 1.25, […], and 0.625 g/L in PBS). Positive controls were triton X-100 (1%, v/v) and melittin (60 mg/L) as lytic peptide, whereas PBS (12%, v/v) served as negative control. After an incubation period of 24 h, supernatant (25 μL) was mixed with lactate dehydrogenase (LDH) substrate (175 μL; 0.57 mmol/L sodium pyruvate, 0.24 mmol/L NADH disodium salt, 32 mmol/L potassium dihydrogen phosphate, 66 mmol/L dipotassium phosphate) in 96-well plates (PS, sterile, flat bottom). Absorbance was recorded at 340 nm every 3 min for 30 min on the Paradigm microplate reader. Due to the total release of LDH upon triton X-100 treatment, the control contained high LDH concentrations resulting in a fast substrate turnover that was only linear for the first 6 min.
(§2) The MTT cell viability assay relied on the same cell culture. Remaining medium was replaced by a mixture of fresh colorless medium (100 μL) and MTT (10 μL; 5 g/L in PBS) and incubated for 4 h (37°C, 5% CO2). A solution of sodium dodecyl sulfate (100 μL; 10%, w/v) dissolved in hydrochloric acid (10 mmol/L) was added, incubated (16 h), and the absorbance recorded at 590 nm relative to the reference at 650 nm (Paradigm microplate reader). The relative cell viability was calculated by [(ODPeptide − ODTriton)/(ODPBS − ODTriton)] × 100% and half-maximal inhibitory concentrations (IC50) with an Excel-template from cell biology protocols (www.sciencegateway.org/ protocols/cellbio/drug/hcic50.htm). For statistical analysis an unpaired t-test was applied using GraphPad Prism 5.0.

[3] = Quartz crystal microbalance, membrane interaction; type: binding
Description: Data were acquired with the Q-Sense E4 system (Q-sense, Sweden using polished, gold-coated, AT-cut quartz sensors with a fundamental frequency of ca. 5 MHz (Q-Sense, Västra Frölunda, Sweden) (Mechler et al., [2007]; McCubbin et al., [2011]). Briefly, sensors were cleaned with hydrogen peroxide (6% w/v) and aqueous ammonia (5.6% w/v) for 20 min (70–75°C), washed with water, and then activated with 3-mercaptopropionic acid (1 mmol/L in isopropanol) overnight. Liposomes consisting of DMPC and DMPG (molar ratio of 4:1) were deposited onto the sensors, washed with “high salt” PBS (20 mmol/L potassium phosphate, 0.1 mol/L NaCl, pH 6.9) and then with “low salt” PBS (10 mmol/L potassium phosphate, 30 mmol/L NaCl, pH 6.9). The system was equilibrated at 19.1 ± 0.1°C with “high salt” PBS, prior to the introduction of peptide solutions (2; 5; 10 and 20 μmol/L, 1 mL each in “high salt” PBS) at a flow rate of 50 μL/min over 20 min followed by an incubation, without any flow. Afterwards the “high salt” PBS was again introduced at 300 μL/min to determine if any surface materials could be removed from the sensor. Changes in the sensor frequency (Δf) and dissipation (ΔD) were monitored for the third, fifth, seventh, and ninth harmonic using Q-Soft (Q-Sense) and analyzed using Origin 8 software.

[4] = tested on: HEK293 cells; assay: in vitro; type: cell-based, human; conditions: 24 h
Description: as §1, §2

[5] = in vitro; conditions: mouse, mouse serum
Description: Peptide solutions (1 g/L) were added to mouse serum to obtain final concentrations of 70 mg/L peptide and incubated under constant shaking at 37°C. After 0, 1, 2, 3, and 6 h aliquots (95 μL) were precipitated with aqueous TCA (25 μL, 15% w/v), incubated for 10 min on ice, and centrifuged (5 min, 12,000 × g, Eppendorf mini spin centrifuge). An aliquot of the supernatant (95 μL) was neutralized with sodium hydroxide (8 μL, 1 mol/L) and diluted with aqueous acetonitrile solution (3% acetonitrile, 0.1% TFA; 200 μL). Peptides were quantified by the peak areas obtained by analytical RP-HPLC on a Jupiter C18-column (ID: 2 mm) using a linear aqueous acetonitrile gradient with 0.1% (v/v) TFA (absorbance recorded at 214 nm). Peak areas of all time points were normalized to the initial peak area obtained after “0 min incubation” (= 100%). Experiments were carried out as triplicates in parallel and half-life times were calculated using GraphPad Prism 5.0.

[6] = Half-life time against serum proteases, serum (abstract)
[7] = Half-life time mouse serum, 37°C

SMILES | MIC E. coli ATCC 25922 [1] [µg/mL] | MIC E. coli DSM 1103, high inoculum [1] [µg/mL] | viability at 24 h, 0.6 g/L [2] [%] | QCM change in dissipation (ΔD) ([3]; 2-20 μmol/L, incubation period ii) | QCM frequency loss upon washing with PBS buffer ([3]; period iii, DMPC:DMPG 4:1) | IC50 on cell viability [4] [µg/mL] | half-life at 70 mg/L [5, 6] [h] | half-life at 70 mg/L [5, 7] [h] | QCM Δf (peptide insertion) ([3]; 2 μmol/L, DMPC:DMPG 4:1) [Hz] | QCM Δf (peptide insertion) ([3]; 5, 10, and 20 μmol/L, DMPC:DMPG 4:1) [Hz]
CC[C@H](C)[C@H](NC(=O)[C@H](Cc1ccc(O)cc1)NC(=O)[C@@H](NC(=O)[C@@H]1CCCN1C(=O)[C@H](CCCNC(=N)N)NC(=O)[C@H](CC(N)=O)NC(=O)[C@H](CC(N)=O)NC(=O)[C@H](CCCN)N=C(N(C)C)N(C)C)C(C)C)C(=O)N1CCC[C@H]1C(=O)N[C@@H](CCCNC(=N)N)C(=O)N1CCC[C@H]1C(=O)N[C@@H](CCCNC(=N)N)C(=O)N1CCC[C@H]1C(=O)N1CCC[C@H]1C(=O)N[C@@H](Cc1c[nH]cn1)C(=O)N1CCC[C@H]1C(=O)N[C@@H](CCCNC(=N)N)C(=O)N[C@@H](CC(C)C)C(=O)O [Api137, gu-ONNRPVYIPRPRPPHPRL-OH, reference compound] ({Orn(α-tetramethylguanidino)}-NNRPVYIPRPRPPHPRL-OH) | 2 (≈ 0.873 µM) | 32 (≈ 14 µM) | 83 ± 3 | No change | ~ 2 Hz | – | – | – | – | –
CC(C)C[C@H](NC(=O)[C@H](CCCNC(=N)N)NC(=O)[C@@H]1CCCN1C(=O)[C@H](Cc1c[nH]cn1)NC(=O)[C@@H]1CCCN1C(=O)[C@@H]1CCCN1C(=O)[C@H](CCCNC(=N)N)NC(=O)[C@@H]1CCCN1C(=O)[C@H](CCCNC(=N)N)NC(=O)[C@@H]1CCCN1C(=O)[C@H](CCCN)NC(=O)[C@H](Cc1ccc(O)cc1)NC(=O)[C@@H](NC(=O)[C@@H]1CCCN1C(=O)[C@H](CCCNC(=N)N)NC(=O)[C@H](CCCN)NC(=O)[C@H](Cc1c[nH]c2ccccc12)NC(=O)[C@H](CCCN)NC(=O)[C@H](Cc1c[nH]c2ccccc12)NC(=O)[C@H](CCCN)NC(=O)[C@H](Cc1c[nH]c2ccccc12)NC(=O)[C@H](CCCN)N=C(N(C)C)N(C)C)C(C)C)C(=O)O [Api794, gu-O(WO)3RPVYOPRPRPPHPRL-OH] ({Orn(α-tetramethylguanidino)}-W[Orn]W[Orn]W[Orn]RPVY[Orn]PRPRPPHPRL-OH) | 16 (≈ 5.4 µM) | 64 (≈ 21.6 µM) | – | – | – | 280 ± 30 (≈ 94.4 µM) | > 5 | 5.18 | – | –
CC[C@H](C)[C@H](NC(=O)[C@H](CCCN)N=C(N(C)C)N(C)C)C(=O)N[C@@H](CCCN)C(=O)N[C@H](C(=O)N[C@@H](CCCN)C(=O)N[C@@H](CCCNC(=N)N)C(=O)N1CCC[C@H]1C(=O)N[C@H](C(=O)N[C@@H](Cc1ccc(O)cc1)C(=O)N[C@@H](CCCN)C(=O)N1CCC[C@H]1C(=O)N[C@@H](CCCNC(=N)N)C(=O)N1CCC[C@H]1C(=O)N[C@@H](CCCNC(=N)N)C(=O)N1CCC[C@H]1C(=O)N1CCC[C@H]1C(=O)N[C@@H](Cc1c[nH]cn1)C(=O)N1CCC[C@H]1C(=O)N[C@@H](CCCNC(=N)N)C(=O)N[C@@H](CC(C)C)C(=O)O)C(C)C)[C@@H](C)CC [Api795, gu-O(IO)2RPVYOPRPRPPHPRL-OH] ({Orn(α-tetramethylguanidino)}-I[Orn]I[Orn]RPVY[Orn]PRPRPPHPRL-OH) | 8 (≈ 3.18 µM) | 32 (≈ 12.7 µM) | ~60 | – | – | >600 | > 5 | 5.9 | 9 | 6
